Test results: patent US3991200A, “Substituted nitroimidazolyl thiadiazoles and oxadiazoles as antibacterial agents and growth promoting compounds” (American Cyanamid Company, priority 1973, dated 1976)
Read-outs that look alike come from different tables or passages of the source.

What was measured:
bacteria = conditions: prior-art compounds; cited from earlier work
solubility in water = assay type: physicochemical
[1] = concentrations of drug in plasma of noninfected mice (agar-diffusion assay); assay type: in vivo; conditions: for Cmax: mouse, read-out: Peak concn. in plasma
Method: Concentrations of drug in plasma are determined by assay of blood obtained by heart puncture of noninfected mice. Blood samples (about 0.5 ml. per mouse) from 10 mice receiving the same dose of drug are pooled. The drug is assayed in the plasma by a standard agar-diffusion plate method with Bacillus subtilis (Lederle No. 17) as the test organism.

[2] = test system: Staphylococcus aureus strain Rose; experiment: antibacterial activity in mice, Tests with Staphylococcus aureus strain Rose; assay type: in vivo, Staphylococcus aureus (in Carworth Farms CFl-s female mice); conditions: read-out: Results alive/tested (converted)
Method: (§1) Experiments were conducted to determine the antibacterial activity of compounds of the present invention against Proteus mirabilis, Staphylococus aureus strain Smith and Staphylococcus aureus strain Rose a tetracycline-resistant strain of Staphylococcus aureus. Infection was initiated in Carworth Farms CFl-s female mice (body weight […].) by intra-abdominal infection of 0.5 ml. of the broth dilutions of 5 hour cultures of the above organisms.

Pasteurella multocida [3] = experiment: controlling a Pasteurella multocida infection in mice; assay type: in vivo, Pasteurella multocida (in Swiss Webster female mice); conditions: 336 h, 2 mg./mouse by gavage, two weeks post-infection, read-out: Survivors/Total (converted)
Method: Swiss Webster, female mice weighing 22±2 g. were infected by intrapeutoneal injection of 0.5 ml. of a 5 hour Trypticase Soy Broth culture containing 10^7 cfu. of P. multocida. Each mouse was given by gavage at the time of infection 2 mg. of the test drug suspended in 0.2% agar.

Salmonella gallinarum = experiment: controlling fowl typhoid in chicks, medicated feed; assay type: in vivo, Salmonella gallinarum (in sex-linked pullet chicks); conditions: 10 days
Method: Groups of five one-day old sex-linked pullet checks are infected orally by gavage with 0.5 ml. of a 10^-^2 dilution of a five-hour Trypticase Soy Broth culture of Salmonella gallinarum, the causative agent of fowl typhoid. Each chick receives approximately 6 × 10^5 viable cells. Medication is administered continuously in the feed, beginning 3 hours before infection and continuing for 10 days, at which time the test is terminated and the number of survivors in each group recorded. Each test utilizes two control groups of chicks, the first group comprising 20 chicks which are infected and untreated, and the second group comprising 10 chicks which are uninfected and untreated. The results of the tests are set forth in the following Table III (in some instances, the results from two or more tests are combined): […]

Pasteurella multocida [4] = experiment: controlling a Pasteurella multocida infection in mice; assay type: in vivo, Pasteurella multocida (in Swiss Webster female mice); conditions: 336 h, two weeks post-infection, read-out: Survivors/Total (converted); for responders at 0.25 mg: 0.25 mg./mouse by gavage; for responders at 0.5 mg: 0.5 mg./mouse by gavage; for responders at 1 mg: 1 mg./mouse by gavage
Escherichia coli = experiment: controlling colibacillosis in chicks infected with Escherichia coli, single oral dose; assay type: in vivo, Escherichia coli (in sex-linked pullet chicks); conditions: 20 chicks tested, 12 days after treatment
Method: Three groups of 10 five-day old sex-linked pullet chicks are infected parenterally, in the left thoracic air sac, with 0.2 ml. of a 10^-^1 dilution of a Trypticase Soy Broth culture of Escherichia coli, the causative agent of colibacillosis in poultry. The compounds to be tested are administered by gavage as a single oral dose in an aqueous solution or suspension, and the chicks are permitted to feed ad libitum the feed composition prepared in Example 44. Twelve days after treatment, the test is terminated and the number of survivors in each group recorded.
Four groups of 40, five-day old sex-linked pullet chicks are infected in the same manner as herein set forth with Escherichia coli. […] Twelve days after treatment, the test is terminated and the number of survivors in each group recorded.

[5] = test system: Salmonella choleraesuis var. kunzendorf; experiment: controlling enteritis, mice infected with Salmonella choleraesuis, medicated feed; assay type: in vivo; conditions: 10 mice tested
Method: Three groups of ten female Swiss Webster mice weighing 20 gm. are infected intraperitoneally with 0.5 ml. of 10^-^2 dilution of a five-hour Trypticase Soy Broth culture of Salmonella choleraesuis var. kunzendorf, the causitive agent of enteritis in pigs, an organism originally recovered from a field outbreak of Salmonella choleraesuis var. kunzendorf in pigs. Each mouse receives approximately 4.6 × 10^7 cells as the inoculating dose.
The mice are fed a medicated feed, which is a commercial mouse chow containing the compounds to be tested for 3 hours before the infection until 7 days after infection. The mice are held for an additional 7 days after the medication is stopped, and the number of survivors in each group recorded. The medicated feed is prepared by thoroughly admixing calculated amounts of the compounds with commercial mouse chow to provide essentially uniform distribution in the feed offered.

[6] = test system: Staphylococcus aureus strain Smith; experiment: antibacterial activity in mice, Tests with Staphylococcus aureus strain Smith; assay type: in vivo, Staphylococcus aureus (in Carworth Farms CFl-s female mice); conditions: read-out: Results alive/tested (converted)
Method: as §1

Proteus mirabilis = experiment: antibacterial activity in mice, Tests with Proteus mirabilis; assay type: in vivo, Proteus mirabilis (in Carworth Farms CFl-s female mice); conditions: 256 mg/kg
Method: as §1

[7] = test system: Salmonella choleraesuis var. kunzendorf; experiment: controlling enteritis caused by Salmonella choleraesuis in swine, medicated feed; assay type: in vivo, Salmonella choleraesuis var. kunzendorf (in pigs)
From the text: In the late afternoon of the day before infection, feed is removed from all pens. The following morning each group receives 2.5 lbs. of feed mixed either with normal broth or broth containing Salmonella choleraesuis variety kunzendorf organisms. […] For the rest of the trial the pigs are observed and graded daily. […] The trial is terminated four weeks after infection.

[8] = 0.006% in feed, 10 chicks tested
[9] = 0.025% in feed, 10 chicks tested

SMILES: Cn1c([N+](=O)[O-])cnc1C=NN1CCNC1=O [1-[(1-methyl-5-nitro-2-imidazolylmethylene)amino]-2-imidazolidinone]
- antibacterial activity, in words (bacteria): some antibacterial activity

SMILES: Cn1c([N+](=O)[O-])cnc1-c1nnc(N)s1 [2-(2-Amino-5-Thiadiazolyl)-1-methyl-5-nitroimidazole]
- solubility in water, in words (solubility in water): relatively insoluble in water
- absorption, in words ([1]; mice): rapidly absorbed
- Cmax ([1]; in vivo, 89 mg/kg): 14000 to 18000 ng/mL
- Cmax ([1]; plasma, 0.2 mg/kg): < 1000 ng/mL
- Cmax ([1]; plasma, 16 mg/kg): 2000 to 4000 ng/mL
- Cmax ([1]; plasma, 56 mg/kg): 6000 to 12000 ng/mL

SMILES: CCn1c([N+](=O)[O-])cnc1-c1nnc(N)o1 [2-(2-Amino-5-oxadiazolyl)-1-ethyl-5-nitroimidazole]
- responders at 512 mg/kg [2]: 100%
- responders at 2 mg (Pasteurella multocida [3]): 80%
- Survivors (Salmonella gallinarum; 0.006% in feed, 5 chicks tested): 3
- Survivors (Salmonella gallinarum; 0.025% in feed, 5 chicks tested): 5
- Survivors (Salmonella gallinarum; 0.1% in feed, 10 chicks tested): 10

SMILES: Cn1c([N+](=O)[O-])cnc1-c1nnc(N)o1 [2-(2-Amino-5-oxadiazolyl)-1-methyl-5-nitroimidazole]
- responders at 0.25 mg (Pasteurella multocida [4]): 10%
- responders at 0.5 mg (Pasteurella multocida [4]): 15%
- responders at 1 mg (Pasteurella multocida [4]): 40%
- responders at 512 mg/kg [2]: 100%
- Survivors (Escherichia coli; 5 mg/kg single oral dose): 7
- Survivors (Escherichia coli; 20 mg/kg single oral dose): 13
- Survivors (Escherichia coli; 80 mg/kg single oral dose): 15
- responders at 2 mg (Pasteurella multocida [3]): 70%
- Survivors (Salmonella gallinarum; [8]): 9
- Survivors (Salmonella gallinarum; [9]): 10
- Survivors (Salmonella gallinarum; 0.1% in feed, 10 chicks tested): 10

SMILES: CCn1c([N+](=O)[O-])cnc1-c1nnc(N)s1 [2-(2-Amino-5-thiadiazolyl)-1-ethyl-5-nitroimidazole]
- Survivors ([5]; 0.025% in mouse chow): 3
- Survivors ([5]; 0.1 % in mouse chow): 9
- responders at 512 mg/kg [2]: 100%
- responders at 2 mg (Pasteurella multocida [3]): 100%
- Survivors (Salmonella gallinarum; [9]): 9
- Survivors (Salmonella gallinarum; 0.1% in feed, 10 chicks tested): 10

SMILES: CN(C)c1nnc(-c2ncc([N+](=O)[O-])n2C)o1 [2-(2-Dimethylamino-5-oxadiazolyl)-1-methyl-5-nitroimidazole]
- responders at 512 mg/kg [2]: 100%
- Survivors (Salmonella gallinarum; [8]): 2
- Survivors (Salmonella gallinarum; [9]): 9
- Survivors (Salmonella gallinarum; 0.1% in feed, 10 chicks tested): 9

SMILES: CN(C)c1nnc(-c2ncc([N+](=O)[O-])n2C)s1 [2-(2-Dimethylamino-5-thiadiazolyl)-1-methyl-5-nitroimidazole]
- responders at 512 mg/kg ([6]; 512 mg/kg): 80%
- Survivors (Salmonella gallinarum; 0.1% in feed, 5 chicks tested): 4

SMILES: Cn1c([N+](=O)[O-])cnc1-c1nnc(NC=O)s1 [2-(2-Formamido-5-Thiadiazolyl)-1-methyl-5-nitroimidazole]
- responders at 0.25 mg (Pasteurella multocida [4]): 80%
- responders at 0.5 mg (Pasteurella multocida [4]): 100%
- responders at 1 mg (Pasteurella multocida [4]): 90%
- responders at 64 mg/kg [6]: 100%
- responders at 512 mg/kg [2]: 100%
- responders at 2 mg (Pasteurella multocida [3]): 100%
- Survivors (Salmonella gallinarum; 0.006% in feed, 15 chicks tested): 9
- Survivors (Salmonella gallinarum; 0.025% in feed, 15 chicks tested): 11
- Survivors (Salmonella gallinarum; 0.1% in feed, 10 chicks tested): 5

SMILES: CNc1nnc(-c2ncc([N+](=O)[O-])n2C)s1 [2-(2-Methylamino-5-thiadiazolyl)-1-methyl-5-nitroimidazole]
- responders at 512 mg/kg [2]: 80%
- Results alive/tested (Proteus mirabilis): 4/5
- Survivors (Salmonella gallinarum; 0.1% in feed, 5 chicks tested): 3

SMILES: CN(C)CCCN1CCN(c2nnc(-c3ncc([N+](=O)[O-])n3C)s2)CC1 [2-{2-[4-(3-Dimethylaminopropyl)-1-piperazinyl]-5-thiadiazolyl}-1-methyl-5-nitroimidazole]
- responders at 256 mg/kg [6]: 60%
- responders at 2 mg (Pasteurella multocida [3]): 100%

SMILES: CN(C)C=Nc1nnc(-c2ncc([N+](=O)[O-])n2C)s1 [2-{2-[ (Dimethylaminomethylene)amino]-5-thiadiazolyl} -1-methyl-5-nitroimidazole]
- responders at 0.25 mg (Pasteurella multocida [4]): 80%
- responders at 0.5 mg (Pasteurella multocida [4]): 97.5%
- responders at 1 mg (Pasteurella multocida [4]): 93.3%
- responders at 64 mg/kg [6]: 100%
- Results alive/tested (Proteus mirabilis): 3/5
- responders at 2 mg (Pasteurella multocida [3]): 100%
- Survivors (Salmonella gallinarum; 0.05% in feed, 5 chicks tested): 5
- Survivors (Salmonella gallinarum; 0.1% in feed, 5 chicks tested): 5

SMILES: CCOC(=O)N1CCN(c2nnc(-c3ncc([N+](=O)[O-])n3C)s2)CC1 [2[2-(4-Carbethoxy-1-piperazinyl)-5-thiadiazolyl]-1-methyl-5-nitroimidazole]
- responders at 256 mg/kg [6]: 80%

SMILES: Cn1c([N+](=O)[O-])cnc1C=NN1CCOC1=O [3-[(1-methyl-5-nitro-2-imidazolylmethylene)amino]-2-oxazolidinone]
- antibacterial activity, in words (bacteria): some antibacterial activity

SMILES: O=C1OCCN1/N=C/c1ccc([N+](=O)[O-])o1 [Furazolidone]
- Median Survival Time ([7]; 50 ppm in diet): 6.8 days
- Survivors Per Total ([7]; 50 ppm in diet ([…] per day nitroimidazole, 2.1 furazolidone)): 0/10
- Median Survival Time ([7]; 200 ppm in diet): 10.0 days
- Survivors Per Total ([7]; 200 ppm in diet (12.3 mg/kg per day nitroimidazole, 7.5 furazolidone), *9/10 differs significantly from infected-untreated (P<.01)): 2/10
